Source: patent US20240245617A1, “LIPID-BASED TOPICAL INJECTION FORMULATIONS” (Beijing Jitai Pharmaceutical Technology Co., Ltd., priority 2022, published 2024)

Tested on: C57BL/6 mice
Assay: In vivo bioluminescence after intravenous administration of lipid nanoparticles encapsulating luciferase mRNA
Conditions: 0.5 mg/kg mRNA, liver
Experimental: The delivery effect and safety of nanoparticles encapsulating luciferase mRNA (Trilink, L-7202) in mice were evaluated. The test mice were SPF-grade C57BL/6 mice, female, 6-8 weeks old, weighing 18-22 g, and were purchased from SPF (Beijing) Biotechnology Co., Ltd. All animals were acclimatized for more than 7 days prior to the experiment, and had free access to food and water during the experiment. The conditions include alternating light and dark for 12/12 h, the indoor temperature of 20-26° C. and the humidity of 40-70%. The mice were randomly grouped. The lipid nanoparticles encapsulating luciferase mRNA prepared above were injected into mice by intravenous administration at a single dose of 0.5 mg/kg mRNA, and the mice were subjected to in vivo bioluminescence assay using a Small Animal In Vivo Imaging System (IVIS LUMINA III, purchased from PerkinElmer) at 6 h after administration. The assay was performed as follows: D-luciferin solution was prepared in saline at a concentration of 15 mg/mL, and each mouse was given the substrate by intraperitoneal injection. At ten minutes after administration of the substrate, the mice were anesthetized in an anesthesia chamber with isoflurane at a concentration of 2.5%. […] Data acquisition and analysis were performed on the liver.
The in vivo delivery efficiency of lipid nanoparticle carriers was expressed as the mean values of fluorescence intensity and total photon count in different animals within the same subject group, as shown in Table 4. Higher values of fluorescence intensity and total photon count indicate higher in vivo delivery efficiency of this mRNA fragment by lipid nanoparticles. The lipid nanoparticles containing the cationic lipids of the present disclosure have good in vivo delivery efficiency and mainly target the liver.

SMILES | Total photon count in vivo at 6 hours after administration (Total Flux)
CCCCCCCCOC(=O)C(C)(C)CCCCCC(CCCCCC(C)(C)C(=O)OCCCCCCCC)OC(=O)CCN(C)C [Compound 2] | 4.23E+08
CCCCCCCCCOC(=O)C(C)(C)CCCCCC(CCCCCC(C)(C)C(=O)OCCCCCCCCC)OC(=O)CCN(C)C [Compound 3] | 1.75E+09
CC(C)CCCC(C)CCOC(=O)C(C)(C)CCCCCC(CCCCCC(C)(C)C(=O)OCCC(C)CCCC(C)C)OC(=O)CCN(C)C (centres unmarked) [Compound 6] | 2.25E+09
CC/C=C\CCCCCOC(=O)C(C)(C)CCCCCC(CCCCCC(C)(C)C(=O)OCCCCC/C=C\CC)OC(=O)CCN(C)C [Compound 7] | 1.16E+08
CCCCCCCCCCNC(=O)C(C)(C)CCCCCC(CCCCCC(C)(C)C(=O)NCCCCCCCCCC)OC(=O)CCN(C)C [Compound 8] | 3.26E+07
CCCCCCCCCNC(=O)C(C)(C)CCCCCC(CCCCCC(C)(C)C(=O)NCCCCCCCCC)OC(=O)CCN(C)C [Compound 9] | 6.05E+06
CCCCCCCCCCCCNC(=O)C(C)(C)CCCCCC(CCCCCC(C)(C)C(=O)NCCCCCCCCCCCC)OC(=O)CCN(C)C [Compound 10] | 1.26E+09
CCCCCCCCC(CCCCCCCC)NC(=O)C(C)(C)CCCCCC(CCCCCC(C)(C)C(=O)NC(CCCCCCCC)CCCCCCCC)OC(=O)CCN(C)C [Compound 11] | 4.42E+06
CCCCCCCCCN(CCCCCCCCC)C(=O)C(C)(C)CCCCCC(CCCCCC(C)(C)C(=O)N(CCCCCCCCC)CCCCCCCCC)OC(=O)CCN(C)C [Compound 12] | 1.10E+09
CCCCCCCCCCOC(=O)C(C)(C)CCCCCC(CCCCCC(C)(C)C(=O)OCCCCCCCCCC)OC(=O)CN(C)C [Compound 17] | 6.77E+05
CCCCCCCCCCOC(=O)C(C)(C)CCCCCC(CCCCCC(C)(C)C(=O)OCCCCCCCCCC)OC(=O)CCCN(C)C [Compound 18] | 1.14E+10
CCCCCCCCOC(=O)C(C)(C)CCCCCC(CCCCCC(C)(C)C(=O)OCCCCCCCC)OC(=O)CCCN(C)C [Compound 19] | 3.20E+09
CCCCCCCCCOC(=O)C(C)(C)CCCCCC(CCCCCC(C)(C)C(=O)OCCCCCCCCC)OC(=O)CCCN(C)C [Compound 20] | 2.40E+10
CCCCCCCC#CCOC(=O)C(C)(C)CCCCCC(CCCCCC(C)(C)C(=O)OCC#CCCCCCCC)OC(=O)CCCN(C)C [Compound 23] | 1.43E+10
CCCCC#CCCCCOC(=O)C(C)(C)CCCCCC(CCCCCC(C)(C)C(=O)OCCCCC#CCCCC)OC(=O)CCCN(C)C [Compound 25] | 1.89E+08
CCCCCCC/C=C\COC(=O)C(C)(C)CCCCCC(CCCCCC(C)(C)C(=O)OC/C=C\CCCCCCC)OC(=O)CCCN(C)C [Compound 26] | >4.00E+10
CCCCCC/C=C\CCOC(=O)C(C)(C)CCCCCC(CCCCCC(C)(C)C(=O)OCC/C=C\CCCCCC)OC(=O)CCCN(C)C [Compound 27] | 2.20E+10
CCCCCCCCCOC(=O)C(C)(C)CCCCCC(CCCCCC(C)(C)C(=O)OCCCCCCCCC)OC(=O)CCCCCN(C)C [Compound 32] | 7.30E+09
CCCCCCCCCCSC(=O)C(C)(C)CCCCCC(CCCCCC(C)(C)C(=O)SCCCCCCCCCC)OC(=O)CCN(C)C [Compound 33] | 2.12E+08
CCCCCCCCCCSC(=O)C(C)(C)CCCCCC(CCCCCC(C)(C)C(=O)SCCCCCCCCCC)OC(=O)CCCN(C)C [Compound 34] | 1.26E+10
CCCCCCCCCCSC(=O)C(C)(C)CCCCCC(CCCCCC(C)(C)C(=O)SCCCCCCCCCC)OC(=O)CCCCCN(C)C [Compound 36] | 4.84E+09
CCCCCCCCCSC(=O)C(C)(C)CCCCCC(CCCCCC(C)(C)C(=O)SCCCCCCCCC)OC(=O)CCCN(C)C [Compound 37] | 7.88E+09

SMILES | Total photon count in vivo at 6 hours after administration (Total Flux)
CCCCCCCCCCSC(=O)C(C)(C)CCCCCC(CCCCCC(C)(C)C(=O)OCCCCCCCCC)OC(=O)CCCN(C)C (centres unmarked) [Compound 40] | 4.22E+09
CCCCCCCCCOC(=O)C(C)(C)CCCCCC(CCCCCC(C)(C)C(=O)SCCCCCCCCC)OC(=O)CCCN(C)C (centres unmarked) [Compound 41] | 2.19E+10
CCCCCCC#CCOC(=O)C(C)(C)CCCCCC(CCCCCC(C)(C)C(=O)OCCCCCCCCC)OC(=O)CCCN(C)C (centres unmarked) [Compound 42] | 5.32E+09
CCCCCCCCCOC(=O)C(C)(C)CCCCCC(CCCCCC(C)(C)C(=O)OCC(CCCCC)CCCCCCC)OC(=O)CCCN(C)C (centres unmarked) [Compound 46] | >4.00E+10
CCCCCCCCCCOC(=O)C(C)(C)CCCCCC(CCCCCC(C)(C)C(=O)OCCCCCCCCCC)OC(=O)CCN1CCOCC1 [Compound 90] | 1.04E+07
CCCCCCCCCCOC(=O)C(C)(C)CCCCCC(CCCCCC(C)(C)C(=O)OCCCCCCCCCC)OC(=O)CN1CCOCC1 [Compound 91] | 1.29E+06
CCCCCCCCCCOC(=O)C(C)(C)CCCCCC(CCCCCC(C)(C)C(=O)OCCCCCCCCCC)OC(=O)CCN1CCCC1 [Compound 92] | 2.13E+09
CCCCCCC/C=C\COC(=O)CC(C)(C)CCCCC(CCCCC(C)(C)CC(=O)OCC(CCCCC)CCCCCCC)OC(=O)CCCN(C)C (centres unmarked) [Compound 98] | 2.12E+10
CCCCCCCCOC(=O)C(C)(C)CCCCCC(CCCCCC(C)(C)C(=O)OCCCCCCCC)OC(=O)C1CCN(C)CC1 [Compound 100] | 1.18E+10
CCCCCCCCOC(=O)C(C)(C)CCCCCC(CCCCCC(C)(C)C(=O)OCCCCCCCC)OC(=O)C1CCN(C(C)C)CC1 [Compound 101] | 5.19E+09
CCCCCCCCCOC(=O)C(C)(C)CCCCCC(CCCCCC(C)(C)C(=O)OCCCCCCCCC)OC(=O)C1CCN(C)CC1 [Compound 102] | 2.03E+10
CCCCCCCCCOC(=O)C(C)(C)CCCCCC(CCCCCC(C)(C)C(=O)OCCCCCCCCC)OC(=O)C1CCN(C(C)C)CC1 [Compound 103] | 5.69E+09
CCCCCCCCCCSC(=O)C(C)(C)CCCCCC(CCCCCC(C)(C)C(=O)SCCCCCCCCCC)OC(=O)C1CCN(C)CC1 [Compound 104] | 2.61E+10
CCCCCCCCCCSC(=O)C(C)(C)CCCCCC(CCCCCC(C)(C)C(=O)SCCCCCCCCCC)OC(=O)C1CCN(C(C)C)CC1 [Compound 105] | 3.33E+09
CCCCCCCCCSC(=O)C(C)(C)CCCCCC(CCCCCC(C)(C)C(=O)SCCCCCCCCC)OC(=O)C1CCN(C)CC1 [Compound 106] | 1.85E+10
CCCCCCCCCSC(=O)C(C)(C)CCCCCC(CCCCCC(C)(C)C(=O)SCCCCCCCCC)OC(=O)C1CCN(C(C)C)CC1 [Compound 107] | 1.36E+10
CCCCCCCCCSC(=O)C(C)(C)CCCCCC(CCCCCC(C)(C)C(=O)SCCCCCCCCC)OC(=O)CC1CCN(C)CC1 [Compound 108] | 1.21E+10
CCCCCCCCCSC(=O)C(C)(C)CCCCCC(CCCCCC(C)(C)C(=O)SCCCCCCCCC)OC(=O)CC1CCN(CC)CC1 [Compound 109] | 1.32E+10
CCCCCCCCCOC(=O)C(C)(C)CCCCCC(CCCCCC(C)(C)C(=O)OCC(CCCCC)CCCCCCC)OC(=O)CC1CCN(C)CC1 (centres unmarked) [Compound 111] | 1.79E+10
CCCCCCCCCSC(=O)C(C)(C)CCCCCC(CCCCCC(C)(C)C(=O)OCC(CCCCC)CCCCCCC)OC(=O)CC1CCN(C)CC1 (centres unmarked) [Compound 112] | 3.53E+10
CCCCCCCC#CCOC(=O)C(C)(C)CCCCCC(CCCCCC(C)(C)C(=O)OCCCC(CCCCC)CCCCC)OC(=O)CCCN(C)C (centres unmarked) [Compound 115] | 2.56E+10
CCCCCCCC#CCOC(=O)C(C)(C)CCCCCC(CCCCCC(C)(C)C(=O)OCC(CCCCC)CCCCCCC)OC(=O)CCCN(C)C (centres unmarked) [Compound 116] | >4.00E+10
